# In patent publication US20090137662A1, “SYNERGY OF DOPAMINE D2 AND ADENOSINE A2 RECEPTORS ACTIVATES PKA SIGNALING VIA BETA/GAMMA DIMERS” (The Regents of the University of California, priority 2002, published 2009):
# Structures can show the parent of a compound that is named as a salt. Where two headings read alike, the source gives them in different places.
# Experiments:
# ε-PKC [1] = experiment: Translocation of ε-PKC in NG108-15 and CHO cells expressing the applicable receptor; type: cell-based
# Text: (§1) To determine whether addictive drugs other than ethanol would cause translocation of some proteins, we examine the effects of various receptor agonists and antagonists on ε-PKC δ-PKC or PKA Cα translocation in NG108-15 and CHO cells expressing the applicable receptor. […] Adenosine is also implicated in some behavioral effects of ethanol.
# (§2) The mechanisms underlying ethanol- and dopamine-mediated translocation of ε-PKC and δ-PKC were studied by altering the activity of various molecules that might be in the pathways leading to translocation.
# PKA Cα [2] = type: cell-based; conditions: for translocation of PKA-Cα after co-incubation with NPA: 10 minute co-incubation with 10^−10M NPA, 10^−11M DADLE or 2×10^−10M methanindamide
# Text: as §1
# [3] = tested on: CRE-regulated luciferase expression; experiment: CRE-luciferase reporter in NG108-15 cells; type: cell-based
# Procedure: Luciferase is used as a reporter gene in a transient expression system to identify substances that alter the effects of ethanol on CRE-regulated gene expression. Cells are cultured as described in Dohrman et al., Proc Natl Acad Sci USA (1996) 93:10217-10221, and are transfected using Effectene (Qiagene) as described by the manufacturers. Twenty-four hours after transfection the cells are treated with 200 mM ethanol for 30 min. to 36 hr. Luciferase activity is measured using Luciferase Assay System (Promega) and normalized to β-galactosidase activity.
# (§3) NG108-15 cells were co-transfected with a fusion construct containing the cAMP response element (CRE) fused to luciferase as a reporter gene (Stratagene).
# Since the ERK/MAPK pathway may regulate CREB phosphorylation and CRE-mediated gene expression, NG108-15 cells having the luciferase construct were co-incubated with 200 mM ethanol and a MEK inhibitor (PD98059 (2 nM, Calbiochem, San Diego, Calif.) or U0126 (1 μM, Calbiochem, San Diego, Calif.)) or a dominant negative MEK construct (DN-MEK, Dr. R. Seger) in which Lys-97 was replaced by alanine.
# as §3
# PKA Cα [4] = experiment: PKA Cα translocation in primary cultures of hippocampal neurons; conditions: for effect of agent alone on PKA Cα localization: data not shown
# ε-PKC [5] = type: cell-based
# Procedure: NG 108-15 or CHO cells were pre-incubated in the presence or absence of the indicated inhibitor for 30 min. (except for GF which was pre-incubated for 1 hour), then further incubated in the absence or presence of 200 mM ethanol for 30 min.
# ε-PKC [6] = type: cell-based; conditions: naive NG108-15 cells; 100 nM PMA, 10 min.
# Procedure: (§4) Naive NG108-15 cells were, therefore, incubated in for ten (10) min. in 100 nM PMA, to then determine localization of δ-PKC and ε-PKC.
# δ-PKC [7] = type: cell-based; conditions: naive NG108-15 cells; 100 nM PMA, 10 min.
# Procedure: as §4
# [8] = tested on: CREB (GAL4-CREB fusion, luciferase reporter); experiment: GAL4-CREB / GAL4-luciferase reporter in NG108-15 cells; type: cell-based; conditions: 20 μM Rp-cAMPS 2 h, 5 μM KN-62 or 50 nM GF 30 min pretreatment, then ethanol 14 hours
# Procedure: Cells are cultured as described in Dohrman et al., Proc Natl Acad Sci USA (1996) 93:10217-10221, and are transfected using Effectene (Qiagene) as described by the manufacturers. […] Luciferase activity is measured using Luciferase Assay System (Promega) and normalized to β-galactosidase activity.
# NG108-15 cells are co-transfected with a GAL4-CREB fusion construct and with a second construct containing the DNA binding site of GAL4 fused to luciferase as a reporter gene. […] The ethanol-induced increase in luciferase activity induced was inhibited by Rp-cAMPS but not by the CaMK and PKC inhibitors KN-62 and GF, respectively (FIGS. 15 and 16B).
# [9] = tested on: CRE-mediated gene expression; experiment: CRE-luciferase reporter assay in NG108-15/D2 cells; conditions: NG108-15/D2 cells; spiperone, Rp-cAMPS or PTX alone
# Procedure: Cells were transiently transfected with a CRE-luciferase reporter construct to measure gene expression via endogenous CRE-binding protein (CREB).
# NG108-15/D2 cells were plated at 1×10^6 cells/100 mm plate, grown in defined medium for 3 days, and then transfected with 10 μg of CRE-luciferase construct using the LipofectAMINE reagent (GIBCOL) as recommended by the manufacturer. Cells were cultured for 24 h post transfection before being seeded into 12-well plates. […] Cells were then washed with PBS and cultured for a total of 5 h. Cell extracts were prepared and luciferase activity measured with a luciferase assay system (Promega, Madison, Wis.), using a Rosys Anthos Lucy2 microplate luminometer (Anthos Labtec Instruments, Austria). Results are expressed as percent increase over control. Data represent three or more separate experiments from triplet wells. Luciferase activities were normalized for transfection efficiency determined in cells transfected in parallel with pCMVβgalactosidase. β-galactosidase activity was measured using a kit from Strategene (La Jolla, Calif.).
# δ-PKC [10] = experiment: Translocation of δ-PKC in NG108-15 and CHO cells expressing the applicable receptor; type: cell-based
# Text: as §1, §2
# [11] = tested on: PKA subunits (RIα, RIIα, RIβ, Cα, Cβ, Cγ); experiment: Immunocytochemical localization of PKA subunits in neutrophils; type: cell-based, human
# Text: Methods 5:249-252 (1974). […] This step removed contaminating platelets from the lymphocyte fraction. […] Images were further analyzed using NIH Image.
# [12] = NG108-15 cells expressing the applicable receptor, 200 mM Ethanol, 50 nM NPA, 1 μM D-ala-D-leu-enkephalin, 2 μM R(+) methanindamide, 20 μM Carbachol, 10^−5 M UK14304, 20 nM CCPA, 100 nM CGS-21680 HCl, None: Perinucleus
# [13] = primary hippocampal neurons, 50 nM NPA, spiperone 10 μM, DPCPX 100 nM, DMPX 10 μM 30 min, Rp-cAMPS 20 μM 1.5 hours, PTX 50 ng/ml or Ad5QEHA overnight
# [14] = CHO cells expressing the dopamine D2 receptor
# [15] = NG108-15 cells expressing the dopamine D2 receptor
# [16] = NG108-15 cells, H-89 10 μM, PD98059 2 nM, U0126 1 μM, DN-RIα, DN-MEK, CREB-M1 constructs co-transfected
# [17] = PKA agonist Sp-cAMPS, or forskolin or PGE1 to increase cAMP levels
# [18] = 10 μM spiperone or 10 μM BW 1434 + 200 mM ethanol
smiles,measurement,setting,value
"OC[C@H]1O[C@@H](n2cnc3c(NC4CCCC4)nc(Cl)nc32)[C@H](O)[C@@H]1O [CCPA, 2-chloro-N^6-cyclopentyladenosine]",Predominant Localization of ε-PKC (agent alone),ε-PKC [1]; [12],Cytoplasm
CCNC(=O)[C@H]1O[C@@H](n2cnc3c(N)nc(NCCc4ccc(CCC(=O)O)cc4)nc32)[C@H](O)[C@@H]1O [CGS-21680 HCl],Predominant Localization of ε-PKC (agent alone),ε-PKC [1]; [12],Cytoplasm
C[N+](C)(C)CCOC(N)=O [Carbachol],Predominant Localization of ε-PKC (agent alone),ε-PKC [1]; [12],Perinucleus
"CC(C)C[C@@H](NC(=O)[C@H](Cc1ccccc1)NC(=O)CNC(=O)[C@@H](C)NC(=O)[C@@H](N)Cc1ccc(O)cc1)C(=O)O [DADLE, enkephalin (D-ala2,D-leu5)]",translocation of PKA-Cα after co-incubation with ethanol,PKA Cα [2],Synergistic translocation
same,translocation of PKA-Cα after co-incubation with NPA,PKA Cα [2],Synergistic translocation
same,translocation of PKA-Cα after co-incubation of δ-opioid and cannabinoid,PKA Cα [2]; 10 minute coincubation of 10^−11M DADLE and 2×10^−10M methanindamide,did not result in synergistic translocation
same,increase in luciferase expression,"[3]; NG108-15 cells, 10 nM DADLE, four hours",40%
same,Predominant Localization of ε-PKC (agent alone),ε-PKC [1],Cytoplasm
C#CCn1c(=O)c2c(ncn2C)n(C)c1=O [DMPX],effect on NPA-induced PKA Cα translocation,PKA Cα [4]; [13],do not affect
same,effect of agent alone on PKA Cα localization,PKA Cα [4]; primary hippocampal neurons,no effect
CCCn1c(=O)c2[nH]c(C3CCCC3)nc2n(CCC)c1=O [DPCPX],effect on NPA-induced PKA Cα translocation,PKA Cα [4],do not affect
same,effect on ethanol-induced PKA Cα translocation,PKA Cα [4],prevents
same,effect of agent alone on PKA Cα localization,PKA Cα [4]; primary hippocampal neurons,no effect
CCCCCCCCCCCCCCCCCCOCC(COP(=O)([O-])OCC[N+](C)(C)C)OC (centres unmarked) [Et-18-OCH3],Predominant ε-PKC Localization (ethanol + inhibitor),ε-PKC [5],Perinucleus
same,inhibition of ethanol-induced translocation of ε-PKC,ε-PKC [1]; [14],87%
same,inhibition of ethanol-induced translocation of ε-PKC,ε-PKC [1]; [15],96%
"CN(C)CCCn1cc(C2=C(c3c[nH]c4ccccc34)C(=O)NC2=O)c2ccccc21 [GF, Bisindoylmaleimide I]",Predominant ε-PKC Localization (ethanol + inhibitor),ε-PKC [5],Perinucleus
O=S(=O)(NCCNC/C=C/c1ccc(Br)cc1)c1cccc2cnccc12 [H-89],effect on the increase in luciferase expression after 14 hours of exposure to 200 mM ethanol,[3]; [16],inhibit the increase in luciferase expression
"Cl.c1ccc([C@@H]2CCC[C@@H]2NC2=NCCCCCCCCCCC2)cc1 [MDL 12, 330A Hydrochloride]",Predominant ε-PKC Localization (ethanol + inhibitor),ε-PKC [5],Perinucleus
COc1cccc(-c2cc(=O)c3ccccc3o2)c1N [PD98059],effect on the increase in luciferase expression after 14 hours of exposure to 200 mM ethanol,[3]; [16],eliminated the increase in luciferase activity
"CCCCCCCCCCCCCC(=O)O[C@@H]1[C@@H](C)[C@@]2(O)[C@@H](C=C(CO)C[C@]3(O)C(=O)C(C)=C[C@@H]23)[C@@H]2C(C)(C)[C@]12OC(C)=O [PMA, phorbol myristate acetate]",localization of ε-PKC on activation by PMA,ε-PKC [6],nuclear and perinuclear localization
same,localization of δ-PKC on activation by PMA,δ-PKC [7],mainly translocated to the perinucleus
CCCCC/C=C\C/C=C\C/C=C\C/C=C\CCCC(=O)N[C@H](C)CO [R(+) methanindamide],translocation of PKA-Cα after co-incubation with ethanol,PKA Cα [2],Synergistic translocation
same,translocation of PKA-Cα after co-incubation with NPA,PKA Cα [2],Synergistic translocation
same,Predominant Localization of ε-PKC (agent alone),ε-PKC [1],Cytoplasm
Nc1ncnc2c1ncn2[C@@H]1O[C@@H]2CO[P@@](O)(=S)O[C@H]2[C@H]1O [Rp-cAMPS],Predominant ε-PKC Localization (ethanol + inhibitor),ε-PKC [5],Perinucleus
same,effect on early (4 h) and late (14 h) phases of ethanol-induced increases in luciferase expression,"[3]; NG108-15 cells, 200 mM ethanol co-incubated with Rp-cAMPS 20 μM",completely inhibited both the early and late phases
same,effect on the ethanol-induced increase in luciferase activity (GAL4-CREB / GAL4-luciferase),[8],inhibited
same,effect of agent alone on luciferase activity / gene expression,[9],without effect
same,effect on NPA-induced translocation of ε-PKC,ε-PKC [1],blocked
same,effect on ethanol-induced translocation of ε-PKC,ε-PKC [1],blocked
same,effect on NPA-induced PKA Cα translocation,PKA Cα [4]; [13],prevent
same,effect of agent alone on PKA Cα localization,PKA Cα [4]; primary hippocampal neurons,no effect
same,effect on NPA-induced translocation of δ-PKC,δ-PKC [10],did not affect
same,effect on ethanol-induced translocation of δ-PKC,δ-PKC [10],did not affect
Nc1ncnc2c1ncn2[C@@H]1O[C@@H]2COP(O)(=S)O[C@H]2[C@H]1O (some centres unmarked) [Sp-cAMPS],translocation of ε PKC on activation of PKA,ε-PKC [1]; [17],translocate to the cytoplasm
same,translocation of δ PKC on activation of PKA,δ-PKC [10]; [17],did not induce translocation
N#CC(=C(/N)Sc1ccccc1N)/C(C#N)=C(\N)Sc1ccccc1N [U0126],effect on the increase in luciferase expression after 14 hours of exposure to 200 mM ethanol,[3],eliminated the increase in luciferase activity
COc1ccc2c(c1)CC[C@@H]1[C@@H]2CC[C@]2(C)[C@@H](NCCCCCCN3C(=O)C=CC3=O)CC[C@@H]12 [U 73122],Predominant ε-PKC Localization (ethanol + inhibitor),ε-PKC [5],Perinucleus
same,inhibition of ethanol-induced translocation of ε-PKC,ε-PKC [1]; [14],87%
same,inhibition of ethanol-induced translocation of ε-PKC,ε-PKC [1]; [15],84%
Brc1c(NC2=NCCN2)ccc2nccnc12 [UK14304],Predominant Localization of ε-PKC (agent alone),ε-PKC [1]; [12],Perinucleus
C=C[C@@]1(C)CC(=O)[C@]2(O)[C@@]3(C)[C@@H](O)CCC(C)(C)[C@@H]3[C@H](O)[C@H](OC(C)=O)[C@@]2(C)O1 [forskolin],"effect on localization of the catalytic subunits of PKA (Cα, Cβ, Cγ)","[11]; neutrophils from non-alcoholics, 200 mM ethanol or 100 nM forskolin",no effect
same,effect on the localization of RIIα,"[11]; neutrophils, ethanol or forskolin",no effect
O=C(CCCN1CCC2(CC1)C(=O)NCN2c1ccccc1)c1ccc(F)cc1 [spiperone],effect on NPA-induced translocation of PKA Cα,PKA Cα [2],blocked
same,effect on ethanol-induced translocation of PKA Cα,PKA Cα [2],no effect
same,Predominant Localization of PKA Cα (antagonist + NPA),PKA Cα [2]; 10 μM spiperone + 50 nM NPA,Golgi
same,Predominant Localization of PKA Cα (antagonist + ethanol),PKA Cα [2]; 10 μM spiperone + 200 mM ethanol,Nucleus &
same,effect of agent alone on luciferase activity / gene expression,[9],without effect
same,effect on NPA-induced translocation of ε-PKC,ε-PKC [1],blocked
same,effect on ethanol-induced translocation of ε-PKC,ε-PKC [1],no effect
same,Predominant Localization of ε-PKC (antagonist + NPA),ε-PKC [1]; 10 μM spiperone + 50 nM NPA,Perinucleus
same,Predominant Localization of ε-PKC (antagonist + ethanol),ε-PKC [1]; [18],Cytoplasm
same,effect on NPA-induced PKA Cα translocation,PKA Cα [4]; [13],blocks
same,effect of agent alone on PKA Cα localization,PKA Cα [4]; primary hippocampal neurons,no effect
same,effect on NPA-induced translocation of δ-PKC,δ-PKC [10],blocked
same,effect on ethanol-induced translocation of δ-PKC,δ-PKC [10],no effect
same,Predominant Localization of δ-PKC (antagonist + NPA),δ-PKC [10]; 10 μM spiperone + 50 nM NPA,Golgi
same,Predominant Localization of δ-PKC (antagonist + ethanol),δ-PKC [10]; [18],Perinucleus &
